{"source": "patent US20150023904A1", "about": "“NEW APPLICATION OF PVP-I” (priority 2013, published 2015)", "system": "patients suffering premature ejaculation", "test": "IELT before and after treatment in patients suffering premature ejaculation (Groups a, b, c)", "type": "in vivo, human", "source_text": "31 patients (27±5 years old) suffering premature ejaculation for 0.5 to 2 years who have abandoned other therapies for at least 1 month before participating in this experiment. With normal sexual desire, and without drug abuse experience, suspected drug use, or contact with radioactive materials, all these patients are composed of 10 with circumcision, 1 with renal insufficiency, 2 with unsatisfactory sexual life after marriage, and 1 with weak erection.\nTaking intravaginal ejaculatin latency time (IELT) as the experimental parameter, if the time after insertion into the vagina is less than 1 minute, deem it as 1 minute. Take IELT for 3 times before and after the treatment, then calculate the mean value.\nThe experiment was performed by observation of three groups: a, b and c, wherein,\nIELT shall be calculated after 1 month of drug taking respectively.\nAll the data were analyzed statistically with statistical software SPSS 18.0, and for single variables, t was inspected by taking the inspection standard α=0.05, with the inspection results as below: codes a, b and c represent different groups, the data following denote treatment time, 1 signifies IELT before treatment, 2 represents IELT after treatment and N as the number of patients."}
{"molecule": "CN[C@H]1CC[C@@H](c2ccc(Cl)c(Cl)c2)c2ccccc21", "note": "[sertraline]", "values": [{"measurement": "number of patients with prolonged IELT after treatment", "setting": "Group a N=4, Group b N=13, Group c N=14, from scatter plots FIG. 2-4", "result": 4}, {"measurement": "IELT after treatment, mean value", "setting": "after treatment, IELT taken 3 times and averaged, calculated after 1 month of drug taking, IELT less than 1 minute deemed 1 minute", "result": 3.75, "unit": "min"}, {"measurement": "IELT before treatment, mean value", "setting": "before treatment (baseline of the same group), IELT taken 3 times and averaged", "result": 1.25, "unit": "min"}, {"measurement": "patients with side effects or adverse reaction", "setting": "lethargy, dysphoria, bruxism and nausea, disappeared 2 to 3 days after drug withdrawal", "result": 5}]}
